Where two headings read alike, the source gives them in different places.
Tests used:
[1] = test system: HCT116-MTAP-KO cells (HCT116 MTAP null); experiment: Proliferation inhibition of HCT116 MTAP-KO cells in vitro (CellTiter Glo); assay type: cell-based; settings: 6 days, 9 concentrations starting from 3 μM, read-out: Cell proliferation inhibition rate HCT116 MTAP null IC50 (nm)
Excerpt: (§1) Biological Test Example 2 Proliferation Inhibition of HCT116 and HCT116 MTAP-KO Cells in Vitro
(§2) HCT116 cell line was purchased from the Chinese Academy of Sciences Cell Bank, and the MTAP gene was knocked out by CRISPR/Cas9 technology to obtain HCT116-MTAP-KO cell line.
(§3) McCoy's 5A medium (Gibco, catalog No. 16600082), fetal bovine serum (Gibco, catalog No. 10099141C), penicillin-streptomycin double antibody (Gibco, catalog No. 15140122), pancreatic enzyme (Gibco, catalog No. 25200056), CellTiter Glo assay kit (Promega, catalog No. G7572), 384-well transparent flat-bottomed black walled cell culture plate (Corning, catalog No. 3764), ultra micro sampler (Tecan, catalog No.D300e), Multimode reader (Biotek, catalog No. SynergyHTX)
(§4) 1. Cell culture: HCT116 and HCT116-MTAP-KO cells were cultured in McCoy'5A medium+10% fetal bovine serum+1% penicillin-streptomycin double antibody; to ensure that they were always in the logarithmic growth phase and the cell viability greater than 95%.
(§5) 2. Compound concentration gradient preparation: The compound to be tested was added to a 384-well plate using an ultra micro sampler, starting from 30 μM (HCT116 cells) or 3 μM (HCT116-MTAP-KO cells), and diluted with DMSO at 3 times for a total of 9 concentrations and set up three duplicate wells.
(§6) 3. Treatment of cells with compounds: Trypsin-digested HCT116 or HCT116-MTAP-KO cell suspension was added to the 384-well plates spotted with the compounds to be tested at 40 μL per well, i.e., 100 cells per well, and the final concentration of DMSO was 0.4%. The cell culture plate was incubated at 37° C. in a 5% CO2 incubator for 6 days.
(§7) 4. Detection: 20 μL of CellTiter Glo reagent was added to each well of the cell culture plate and incubated at room temperature for 30 minutes. A multimode reader was used to detect the luminescence signal at […].
(§8) The data was fitted with GraphPad Prism 8.0 software using a four parameter inhibitor-reaction model to obtain the IC50 value (half inhibitory concentration) of the test compounds.

HCT116 MTAP WT cells = experiment: Proliferation inhibition of HCT116 cells in vitro (CellTiter Glo); assay type: cell-based; settings: 6 days, 9 concentrations starting from 30 μM, read-out: Cell proliferation inhibition rate HCT116 MTAP WT IC50 (nm)
Excerpt: as §1, §2, §3, §4, §5, §6, §7, §8

Structure (SMILES): Cc1ncc2c(N)nc3cc(F)c(C(=O)N(c4cnn(C)c4)C4COc5ccccc54)cc3n12 (stereo not drawn) [Example 125]
- IC50 [1]: < 100 nM
- IC50 (HCT116 MTAP WT cells): 1000 to 10000 nM

Structure (SMILES): Cc1nn(C)cc1N(Cc1ccc(C(F)(F)F)nn1)C(=O)c1cc2c(cc1F)nc(N)c1cnc(C)n12 [Example 127]
- IC50 ([1]; HCT116-MTAP null, 144 h): 100 to 1000 nM
- IC50 (HCT116 MTAP WT cells; Homo sapiens, HCT-116, 144 h): 1000 to 10000 nM

Structure (SMILES): CCn1cc(N(Cc2ccc(C(F)(F)F)cn2)C(=O)c2cc3c(cc2F)nc(N)c2cnc(C)n23)c(C)n1 [Example 129]
- IC50 ([1]; HCT116-MTAP null, 144 h): < 100 nM
- IC50 (HCT116 MTAP WT cells; Homo sapiens, HCT-116, 144 h): 1000 to 10000 nM

Structure (SMILES): COc1ccc(CN(C(=O)c2cc3c(cc2F)nc(N)c2cnc(C)n23)c2cn(C)nc2C)nn1 [Example 131]
- IC50 ([1]; HCT116-MTAP null, 144 h): < 100 nM
- IC50 (HCT116 MTAP WT cells; Homo sapiens, HCT-116, 144 h): 1000 to 10000 nM

Structure (SMILES): Cc1ncc2c(N)nc3cc(F)c(C(=O)N(Cc4ccc(C(F)(F)F)cn4)c4cn(C)nc4CO)cc3n12 [Example 133]
- IC50 ([1]; HCT116-MTAP null, 144 h): 100 to 1000 nM
- IC50 (HCT116 MTAP WT cells; Homo sapiens, HCT-116, 144 h): 1000 to 10000 nM

Structure (SMILES): Cc1nn(C)cc1N(Cc1ccc(C(F)(F)F)cn1)C(=O)c1cc2c(cc1F)nc(N)c1c(C)ncn12 [Example 134]
- IC50 ([1]; HCT116-MTAP null, 144 h): < 100 nM
- IC50 (HCT116 MTAP WT cells; Homo sapiens, HCT-116, 144 h): < 100 nM

Structure (SMILES): CCOc1ccc(CN(C(=O)c2cc3c(cc2F)nc(N)c2cnc(C)n23)c2cn(C)nc2C)nc1 [Example 136]
- IC50 ([1]; HCT116-MTAP null, 144 h): < 100 nM
- IC50 (HCT116 MTAP WT cells; Homo sapiens, HCT-116, 144 h): 1000 to 10000 nM

Structure (SMILES): COc1nn(C)cc1N(Cc1ccc(C(F)(F)F)cn1)C(=O)c1cc2c(cc1F)nc(N)c1cnc(C)n12 [Example 138]
- IC50 ([1]; HCT116-MTAP null, 144 h): < 100 nM
- IC50 (HCT116 MTAP WT cells; Homo sapiens, HCT-116, 144 h): 1000 to 10000 nM

Structure (SMILES): Cc1ccc(N(Cc2ccc(C(F)(F)F)cn2)C(=O)c2cc3c(cc2F)nc(N)c2cnc(C)n23)cn1 [Example 139]
- IC50 ([1]; HCT116-MTAP null, 144 h): < 100 nM
- IC50 (HCT116 MTAP WT cells; Homo sapiens, HCT-116, 144 h): 1000 to 10000 nM

Structure (SMILES): Cc1nn(C)cc1N(Cc1ncc(C(F)(F)F)cn1)C(=O)c1cc2c(cc1F)nc(N)c1cnc(C)n12 [Example 140]
- IC50 ([1]; HCT116-MTAP null, 144 h): 100 to 1000 nM
- IC50 (HCT116 MTAP WT cells; Homo sapiens, HCT-116, 144 h): 1000 to 10000 nM

Structure (SMILES): Cc1ncccc1N(Cc1ccc(C(F)(F)F)cn1)C(=O)c1cc2c(cc1F)nc(N)c1cnc(C)n12 [Example 143, 4-Amino-7-fluoro-1-methyl-N-(2-methylpyridin-3-yl)-N-(5-(trifluoromethyl)pyridin-2-ylmethyl)imidazolo[1,5-a]quinoxalin-8-carboxamide]
- IC50 ([1]; HCT116-MTAP null, 144 h): < 100 nM
- IC50 (HCT116 MTAP WT cells; Homo sapiens, HCT-116, 144 h): 100 to 1000 nM

Structure (SMILES): Cc1nn(C)cc1N(Cc1ccc(OC2CC2)cn1)C(=O)c1cc2c(cc1F)nc(N)c1cnc(C)n12 [Example 144]
- IC50 ([1]; HCT116-MTAP null, 144 h): < 100 nM
- IC50 (HCT116 MTAP WT cells; Homo sapiens, HCT-116, 144 h): 1000 to 10000 nM

Structure (SMILES): COc1ncccc1N(Cc1ccc(C(F)(F)F)cn1)C(=O)c1cc2c(cc1F)nc(N)c1cnc(C)n12 [Example 145]
- IC50 ([1]; HCT116-MTAP null, 144 h): < 100 nM
- IC50 (HCT116 MTAP WT cells; Homo sapiens, HCT-116, 144 h): 100 to 1000 nM

Structure (SMILES): COc1ccc(N(Cc2ccc(OC3CC3)cn2)C(=O)c2cc3c(cc2F)nc(N)c2cnc(C)n23)cn1 [Example 146]
- IC50 ([1]; HCT116-MTAP null, 144 h): < 100 nM
- IC50 (HCT116 MTAP WT cells; Homo sapiens, HCT-116, 144 h): 1000 to 10000 nM

Structure (SMILES): COc1ncc(N(Cc2ccc(C(F)(F)F)cn2)C(=O)c2cc3c(cc2F)nc(N)c2cnc(C)n23)cn1 [Example 148]
- IC50 ([1]; HCT116-MTAP null, 144 h): 100 to 1000 nM
- IC50 (HCT116 MTAP WT cells; Homo sapiens, HCT-116, 144 h): 1000 to 10000 nM

Structure (SMILES): Cc1ncc2c(N)nc3cc(F)c(C(=O)N(Cc4ccc(C(F)(F)F)cn4)C4CCOCC4)cc3n12 [Example 149]
- IC50 ([1]; HCT116-MTAP null, 144 h): 100 to 1000 nM
- IC50 (HCT116 MTAP WT cells; Homo sapiens, HCT-116, 144 h): 1000 to 10000 nM

Structure (SMILES): CCn1cc(N(Cc2ccc(C(F)(F)F)cn2)C(=O)c2cc3c(cc2F)nc(N)c2c(C)ncn23)c(C)n1 [Example 150]
- IC50 ([1]; HCT116-MTAP null, 144 h): < 100 nM
- IC50 (HCT116 MTAP WT cells; Homo sapiens, HCT-116, 144 h): 100 to 1000 nM

Structure (SMILES): Cc1[nH]ncc1N(Cc1ccc(C(F)(F)F)cn1)C(=O)c1cc2c(cc1F)nc(N)c1cnc(C)n12 [Example 151]
- IC50 ([1]; HCT116-MTAP null, 144 h): 100 to 1000 nM
- IC50 (HCT116 MTAP WT cells; Homo sapiens, HCT-116, 144 h): 1000 to 10000 nM

Structure (SMILES): COCCOc1ccc(CN(C(=O)c2cc3c(cc2F)nc(N)c2cnc(C)n23)c2cn(C)nc2C)nc1 [Example 152]
- IC50 ([1]; HCT116-MTAP null, 144 h): 100 to 1000 nM
- IC50 (HCT116 MTAP WT cells; Homo sapiens, HCT-116, 144 h): 1000 to 10000 nM

Structure (SMILES): Cc1ncn2c1c(N)nc1cc(F)c(C(=O)N3[C@H](C)COC[C@@H]3c3ccc(C(F)(F)F)cn3)cc12 [Example 153]
- IC50 ([1]; HCT116-MTAP null, 144 h): < 100 nM
- IC50 (HCT116 MTAP WT cells; Homo sapiens, HCT-116, 144 h): 100 to 1000 nM

Structure (SMILES): Cc1ncn2c1c(N)nc1cc(F)c(C(=O)N3C(C)COCC3c3ccc(C(F)(F)F)cn3)cc12 (stereo not drawn) [Example 155]
- IC50 [1]: < 100 nM
- IC50 (HCT116 MTAP WT cells): 1000 to 10000 nM

— patent US20250376473A1, “PRMTS INHIBITOR AND USE THEREOF” (Cytosinlab Therapeutics Co., Ltd., priority 2022, published 2025)
